Assay results reported in patent publication US20130072505A1, “6,9-Disubstituted Purine Derivatives and Their Use for Treating Skin” (priority 2006, published 2013).

Experiments:
[1] = test system: Human diploid fibroblasts (HCA cells); experiment: inhibition of senescence, β-galactosidase staining; type: cell-based; conditions: test compounds about 50 μM at each passage; for Senescent Cells (%) HCA25: passage 25; for Senescent Cells (%) HCA80: passage 80
Description: Inhibition of senescence by several of the 6,9-disubstituted purine derivatives of this invention was determined; kinetin was also evaluated as a control. […] The medium used for the cell cultivation was removed, the cells were washed twice in PBS, and fixed in 2-3 ml of fixing solution comprised of a 2% formaldehyde and 0.2% glutaraldehyde in PBS. The cells were incubated at room temperature for 5 minutes, and then washed twice with PBS. The cells were subsequently incubated at 37° C. (without CO2) for 1 to 16 hours in 2-3 ml of the solution comprising potassium ferricyanide (5 mM), potassium ferrocyanide (5 mM), MgCl2 (2 mM), X-gal (5-bromo-4-chloro-3-indolyl-β-D-galactopyranoside) (1 mg/ml), in citric/phosphate buffer (pH 6.0). The test compounds (about 50 μM) were added to the medium at each passage. […] In this experiment, only senescent cells were stained blue due to the action of β-galactosidase on the substrate.

[2] = test system: Human forskin fibroblasts (cell line BJ); experiment: in vitro cytotoxic activity, MTT assay; type: cell-based; conditions: 72 hours, BJ fibroblasts at middle passage
Description: In vitro cytotoxic activity of several of the 6,9-disubstituted purine derivatives of this invention against human diploid fibroblasts was determined by standard MTT assay optimized for 96-well plates. The assay is based on spectrofotometric measurement of the product of metabolic conversion of MTT by mitochondria of living cells.
Human forskin fibroblasts (cell line BJ) at middle passage were maintained in 75 cm^2 plastic tissue culture flasks and cultured in cell culture medium (DMEM with 5 g/l glucose, 2 mM glutamine, 100 U/ml penicillin, 100 μg/ml streptomycin, 10% fetal calf serum, and sodium bicarbonate).
About 5,000 cells were seeded per well of the 96-well plate. After 24 hours the cell culture medium was replaced with the cell culture medium containing a test compound. The test compounds were evaluated at six 2-fold dilutions. The highest concentration used in the present study was usually 200 μM. In the case of compounds with limited solubility in the culture medium the highest concentration was adjusted. Every test compound was examined in five replicates. Cells with the test compounds were incubated for 72 hours at 37° C. in 5% CO2 atmosphere and 100% humidity. At the end of the incubation period, the culture medium was replaced with the cell culture medium containing MTT (0.5 mg/ml) and cells were incubated for another 3 hours. The formazan formed was solubilized by DMSO and absorbance at 570 nm was measured. Ability of the tested compounds to inhibit MTT reducing activity of the cells was calculated as IC=(Acompound exposed well−mean Ablank)/(mean Acontrol well−meanAblank)×100%. IC10, the drug concentration causing 10% decrease in MTT reducing activity, was calculated from the obtained dose response curves.

mouse fibroblasts NIH3T3 = experiment: in vitro cytotoxic activity, Calcein AM microtiter assay; type: cell-based; conditions: NIH3T3, 72 hours, highest concentration 166.7 μM, read-out: GI50 NIH-3T3
Description: (§1) In vitro cytotoxic activity of several of the 6,9-disubstituted purine derivatives of this invention was determined using a microtiter assay with Calcein AM and a panel of cell lines of different histogenetic and species origin; kinetin was also examined as a control. Because only metabolically active cells cleave Calcein AM (tetraacetoxymethyl ester of calcein), the intracellular concentration of calcein corresponds to the number of vital cells in the culture.
(§2) The following cell lines were used: human osteosarcoma (HOS); breast carcinoma MCF-7; human myeloid leukemia K-562; and mouse fibroblasts NIH3T3. The cells were maintained in Nunc/Corning 80 cm^2 plastic tissue culture flasks and cultured in cell culture medium (DMEM with 5 g/l glucose, 2 mM glutamine, 100 U/ml penicillin, 100 μg/ml streptomycin, 10% fetal calf serum, and sodium bicarbonate).
(§3) The cell suspensions were prepared and diluted according to the particular cell type and the expected target cell density (2.500-30.000 cells per well based on cell growth characteristics) were added by pipette (80 μl) into 96/well microtiter plates. Inoculates were allowed a pre-incubation period of 24 hours at 37° C. and 5% CO2 for stabilization. Four-fold dilutions of the intended test concentration were added at time zero in 20 μl aliquots to the microtiter plate wells. The test compounds were generally evaluated at six 4-fold dilutions. The highest well concentration used in the present study was 166.7 μM. All samples were examined in triplicates. Incubations of cells with the tested compounds was for 72 hours at 37° C., in 5% CO2 atmosphere and 100% humidity. At the end of the incubation period, Calcein AM was added to a final concentration of 1 μg/ml incubated for 1 hour. Fluorescence intensity (FI) was measured with a Labsystem FIA Reader Fluoroscan Ascent (UK). The cell survival (GI50) was calculated using the following equation: GI50=([…])/(mean FIcontrol well−mean FIblank)×100%. The GI50 value, the drug concentration lethal to 50% of the cells, was calculated from the obtained dose response curves.

breast carcinoma MCF-7 = experiment: as above; type: cell-based; conditions: Homo sapiens, MCF7; 72 hours; highest concentration 166.7 μM
Description: as §1, §2, §3

human osteosarcoma (HOS) = experiment: as above; type: cell-based; conditions: 72 hours, highest concentration 166.7 μM
Description: as §1, §2, §3

[3] = test system: Rat C6 glioma (ATCC No. CCL107); experiment: anti-inflammatory activity: isoproterenol-induced intracellular cAMP synthesis; type: cell-based; conditions: cAMP after 30 min with (−)-isoproterenol; for IC50: Rattus norvegicus, C6 glioma, 0.5 h, read-out: Anti-inflammatory Activity I50
Description: Anti-inflammatory activity of several of the 6,9-disubstituted purine derivatives of this invention was determined; kinetin was also evaluated as a control. Rat C6 glioma (ATCC No. CCL107) was cultivated in monolayer in serum-free chemically defined medium containing Ham's F10/minimal essential medium (1:1 v/v), 2 mM L-glutamine, 1% (v/v) minimal essential medium vitamins (100×), 1% (v/v) minimal essential medium nonessential amino acids (100×), 100 U/ml penicillin, […], and 30 nM sodium selenite. Incubation was performed at 37° C. in a humidified atmosphere. The assays were performed in the logaritmic growth phase at a density of 2.5×10^5 cells/cm^2. Intracellular cAMP synthesis was induced by addition of 5 mM (−)-isoproterenol; various amounts of test compounds were added at the same time as the (−)-isoproterenol. After 30 min incubation at 37° C., the medium was removed and the cellular amount of cAMP was determined using the cAMP-enzyme immunoassay kit from Amersham. The I50 value was determined from a dose-response curve in duplicate.

SMILES | melting point | Senescent Cells (%) HCA50 [1] | Senescent Cells (%) HCA25 [1] | Senescent Cells (%) HCA80 [1] | IC10 (concentration causing 10% decrease in MTT reducing activity) [2] | also measured
COc1ccc(Nc2ncnc3c2ncn3C2CCCCO2)c(OC)c1 (centres unmarked) [6-(2,4-dimethoxyphenylamino)-9-(2-tetrahydropyranyl)purine] |  | 4% | 4% | 29% |  | 
COc1cc(OC)c(OC)cc1Nc1ncnc2c1ncn2C1CCCCO1 (centres unmarked) [6-(2,4,5-trimethoxyphenylamino)-9-(2-tetrahydropyranyl)purine] |  | 4% | 5% | 25% |  | 
COc1ccc(CNc2ncnc3c2ncn3C2CCCCO2)c(OC)c1 (centres unmarked) [6-(2,4-dimethoxybenzylamino)-9-(2-tetrahydropyranyl)purine] |  | 6% | 4% | 25% | >25 µM | 
COc1ccccc1CNc1ncnc2c1ncn2C1CCCCO1 (centres unmarked) [6-(2-methoxybenzylamino)-9-(2-tetrahydropyranyl)purine] | 106 to 108 °C | 6% | 4% | 22% |  | 
COc1ccc(CNc2ncnc3c2ncn3C2CCCCO2)cc1OC (centres unmarked) [6-(3,4-dimethoxybenzylamino)-9-(2-tetrahydropyranyl)purine] |  |  |  |  | >200 µM | 
COc1cc(CNc2ncnc3c2ncn3C2CCCCO2)cc(OC)c1OC (centres unmarked) [6-(3,4,5-trimethoxybenzylamino)-9-(2-tetrahydropyranyl)purine] |  |  |  |  |  | IC10 (concentration causing 10% decrease in MTT reducing activity) ([2]; highest tested concentration 100 µmol/l): >100 µM; IC10 (concentration causing 10% decrease in MTT reducing activity) ([2]; highest tested concentration 200 µmol/l): >200 µM
COc1cccc(CNc2ncnc3c2ncn3C2CCCCO2)c1OC (centres unmarked) [6-(2,3-dimethoxybenzylamino)-9-(2-tetrahydropyranyl)purine] |  |  |  |  |  | GI50 (mouse fibroblasts NIH3T3): > 167 µM; GI50 (breast carcinoma MCF-7): > 167 µM; GI50 (human osteosarcoma (HOS)): > 167 µM
COc1cc(OC)c(CNc2ncnc3c2ncn3C2CCCCO2)c(OC)c1 (centres unmarked) [6-(2,4,6-trimethoxybenzylamino)-9-(2-tetrahydropyranyl)purine] |  |  |  |  | >50 µM | 
COc1cc(CNc2ncnc3c2ncn3C2CCCCO2)cc(OC)c1 (centres unmarked) [6-(3,5-dimethoxybenzylamino)-9-(2-tetrahydropyranyl)purine] |  |  |  |  | >200 µM | IC50 [3]: 11 µM; Anti-inflammatory Activity Effect [3]: Inhibition; GI50 (mouse fibroblasts NIH3T3): > 167 µM; GI50 (breast carcinoma MCF-7): > 167 µM; GI50 (human osteosarcoma (HOS)): > 167 µM
c1ccc(Nc2ncnc3c2ncn3C2CCCCO2)cc1 (centres unmarked) [6-phenylamino-9-(2-tetrahydropyranyl)purine] |  |  |  |  |  | IC50 [3]: 45 µM; Anti-inflammatory Activity Effect [3]: Inhibition
COc1ccc(Nc2ncnc3c2ncn3C2CCCCO2)cc1OC (centres unmarked) [6-(3,4-dimethoxyphenylamino)-9-(2-tetrahydropyranyl)purine] |  | 7% | 5% | 28% |  | 
COc1cc(OC)c(OC)cc1CNc1ncnc2c1ncn2C1CCCCO1 (centres unmarked) [6-(2,4,5-trimethoxybenzylamino)-9-(2-tetrahydropyranyl)purine] |  |  |  |  | >200 µM | 
COc1ccc(CNc2ncnc3c2ncn3C2CCCCO2)c(OC)c1OC (centres unmarked) [6-(2,3,4-trimethoxybenzylamino)-9-(2-tetrahydropyranyl)purine] | 142 to 143 °C | 5% | 4% | 31% |  | 

Second part, led by results:

melting point | SMILES | Senescent Cells (%) HCA50 [1] | Senescent Cells (%) HCA25 [1] | Senescent Cells (%) HCA80 [1] | IC10 (concentration causing 10% decrease in MTT reducing activity) [2] | also measured
150 to 152 °C | COc1ccc(OC)c(CNc2ncnc3c2ncn3C2CCCCO2)c1 (centres unmarked) [Example 12, 6-(2,5-dimethoxybenzylamino)-9-(2-tetrahydropyranyl)purine] |  |  |  |  | 
150 to 151 °C | COc1ccc(Nc2ncnc3c2ncn3C2CCCCO2)cc1 (centres unmarked) [Example 10, 6-(4-methoxyphenylamino)-9-(2-tetrahydropyranyl)purine] |  |  |  |  | 
128 to 129 °C | c1coc(CNc2ncnc3c2ncn3C2CCCO2)c1 (centres unmarked) [6-furfurylamino-9-(2-tetrahydrofuranyl)purine] | 4% | 3% | 12% | >200 µM | 
97 to 99 °C | COc1ccccc1CNc1ncnc2c1ncn2C1CCCO1 (centres unmarked) [Example 8, 6-(2-methoxybenzylamino)-9-(2-tetrahydrofuranyl)purine] |  |  |  |  | 
182 to 183 °C | COc1ccc(CNc2ncnc3c2ncn3C2CCCO2)cc1 (centres unmarked) [6-(4-methoxybenzylamino)-9-(2-tetrahydrofuranyl)purine] |  |  |  |  | GI50 (mouse fibroblasts NIH3T3): > 167 µM; GI50 (breast carcinoma MCF-7): > 167 µM; GI50 (human osteosarcoma (HOS)): > 167 µM
134 to 135 °C | COc1cccc(CNc2ncnc3c2ncn3C2CCCCO2)c1 (centres unmarked) [6-(3-methoxybenzylamino)-9-(2-tetrahydropyranyl)purine] | 5% | 5% | 24% | >100 µM | IC50 [3]: 7 µM; Anti-inflammatory Activity Effect [3]: Inhibition
103 to 104 °C | COc1ccc(OC)c(CNc2ncnc3c2ncn3C2CCCO2)c1 (centres unmarked) [Example 13, 6-(2,5-dimethoxybenzylamino)-9-(2-tetrahydrofuranyl)purine] |  |  |  |  | 
87 to 88 °C | COc1cccc(CNc2ncnc3c2ncn3C2CCCO2)c1 (centres unmarked) [6-(3-methoxybenzylamino)-9-(2-tetrahydrofuranyl)purine] |  |  |  |  | GI50 (mouse fibroblasts NIH3T3): > 167 µM; GI50 (breast carcinoma MCF-7): > 167 µM; GI50 (human osteosarcoma (HOS)): > 167 µM
140 to 141 °C | COc1ccc(CNc2ncnc3c2ncn3C2CCCO2)c(OC)c1OC (centres unmarked) [Example 15, 6-(2,3,4-trimethoxybenzylamino)-9-(2-tetrahydrofuranyl)purine] |  |  |  |  | 
